Assay results published in US10413559B2, “Method for treating demyelinating disease” (OCHANOMIZU UNIVERSITY, priority 2013, dated 2019).

Key:
[1] = test system: demyelination model mice (0.2% cuprizone); experiment: Myelin level by Black Gold staining in cuprizone demyelination model mice (Example 1); type: in vivo, C57BL/6 mice; conditions: intraperitoneal 40 μg/200 μl saline/day for 5 weeks, FIG. 2
Description: 10-week-old male C57BL/6 mice were fed with a mash feed containing 0.2% cuprizone for five weeks until the most significant demyelination occurred, so as to produce demyelination model mice. cPA and carba-cPA (cPA) powders were each dissolved in a saline, and the obtained solutions were each administered intraperitoneally at a dose of 40 μg/200 μl saline/day to the mice every day for 5 weeks. On the other hand, to negative control mice, a saline (200 μl/day) was intraperitoneally administered in the same manner as described above. The mice, to which the test compound had been administered, were subjected to perfusion fixation with 4% paraformaldehyde, and sections to be used for frozen tissue staining (30 μm) were then prepared in a cryostat (FIG. 1). The level of myelin in each mouse was measured by Black Gold staining, and the demyelination level was then measured based on the stained level (FIG. 2).

[2] = test system: demyelination model mice (0.2% cuprizone), corpus callosum; experiment: Histological staining (Black Gold II) of corpus callosum and evaluation of demyelination (Example 2); type: in vivo, C57BL/6j mice; conditions: intraperitoneal 1.6 mg/kg/day for 5 weeks, FIG. 3, FIG. 4
Source text: 10-week-old male C57BL/6j mice (Tokyo Laboratory Animals Science Co., Ltd., Tokyo, Japan) were fed by the discretionary intake of a mash feed (CLEA Japan, Inc.) that contained 0.2% cuprizone (biscyclohexanone oxalyl hydrazone; Merck KGaA, Darmstadt, Germany) for 5 weeks until demyelination progressed most, so as to produce demyelination model mice involving demyelination caused by oligodendrocyte-specific cell death. To obtain tissues to be used for histological analysis, a mouse was subjected to perfusion fixation through the heart with 4% paraformaldehyde, and the resulting brain tissues were then excised from the mouse. Thereafter, the tissues were immobilized and infiltrated with 30% sucrose. Thereafter, a frozen tissue block was prepared and was then sliced in a cryostat. The cPA used in the experiment was the same cPA (16:0) as that used in Example 1, and the carba-cPA was 2 ccPA (16:1). The cPA and 2 ccPA were chemically purified (Biochimica et Biophysica Acta, Emi Nozaki 2011), and were then dissolved in a 0.9% saline. […] For the analysis of the level of myelin, using Image J 1.46r software, the stained level in the corpus callosum area was measured, and the demyelination level was then evaluated, while setting the control as 100%.

[3] = test system: GFAP, Iba1, PDGFRa, P2rx7, Nlrp3 gene expression in corpus callosum; experiment: Genetic analysis using Q-PCR of corpus callosum tissues; type: in vivo, C57BL/6j mice; conditions: cuprizone mice; intraperitoneal 1.6 mg/kg/day for 5 weeks; FIG. 6-8
Source text: 10-week-old male C57BL/6j mice (Tokyo Laboratory Animals Science Co., Ltd., Tokyo, Japan) were fed by the discretionary intake of a mash feed (CLEA Japan, Inc.) that contained 0.2% cuprizone (biscyclohexanone oxalyl hydrazone; Merck KGaA, Darmstadt, Germany) for 5 weeks until demyelination progressed most, so as to produce demyelination model mice involving demyelination caused by oligodendrocyte-specific cell death.
To obtain mouse corpus callosum tissues to be used for genetic analysis, mouse brain was removed, and the corpus callosum tissues were then collected from the brain. […]
mRNA was extracted from the frozen corpus callosum tissues using ISOGEN (Nippon Gene Co., Ltd., Tokyo, Japan), was then dissolved in RNase free molecular grade water (Takara Bio Inc., Shiga, Japan), and was then preserved at −80° C. […] Gene expression was detected using 7900 Sequence Detection System (Applied Biosystems). […] The gene expression level was calculated by a ΔΔCT method. Data were analyzed by a relative quantification method. A relative change in the gene expression was analyzed, while setting the gene expression level in a control mouse at 100%.

[4] = test system: demyelination model mice (0.2% cuprizone); experiment: Test of motor function impairment using rotarod; type: in vivo, C57BL/6j mice; conditions: intraperitoneal 1.6 mg/kg/day for 5 weeks, 28 rpm, 300 seconds, FIG. 9, FIG. 10
Source text: 10-week-old male C57BL/6j mice (Tokyo Laboratory Animals Science Co., Ltd., Tokyo, Japan) were fed by the discretionary intake of a mash feed (CLEA Japan, Inc.) that contained 0.2% cuprizone (biscyclohexanone oxalyl hydrazone; Merck KGaA, Darmstadt, Germany) for 5 weeks until demyelination progressed most, so as to produce demyelination model mice involving demyelination caused by oligodendrocyte-specific cell death. The cPA used in the experiment was the same cPA (16:0) as that used in Example 1, and the carba-cPA was 2 ccPA (16:1). The cPA and 2 ccPA were chemically purified (Biochimica et Biophysica Acta, Emi Nozaki 2011), and were then dissolved in a 0.9% saline. […] The locomotion time on the rod was evaluated by measuring the time required for the mice to fall from the rotating rod within a record time of 300 seconds. Moreover, even after the mice had fallen from the rod, they were forced to continue their activity immediately after the falling, so that a total number of the activities from falling from the rod to holding on to the rod for 300 seconds (a number of falls and flips) was measured and evaluated. The data of the test of motor function impairment were analyzed according to a non-parametric method using a Kruskal-Wallis test. All of other data were analyzed according to a one-way ANOVA method using a Newman-Keulis test. […]

[5] = target: T1, DNA polymerase α (Homo sapiens, UniProt P09884); conditions: Murakami-Murofushi et al. 1992; cited from earlier work
T1 sequence (P09884 1-1462): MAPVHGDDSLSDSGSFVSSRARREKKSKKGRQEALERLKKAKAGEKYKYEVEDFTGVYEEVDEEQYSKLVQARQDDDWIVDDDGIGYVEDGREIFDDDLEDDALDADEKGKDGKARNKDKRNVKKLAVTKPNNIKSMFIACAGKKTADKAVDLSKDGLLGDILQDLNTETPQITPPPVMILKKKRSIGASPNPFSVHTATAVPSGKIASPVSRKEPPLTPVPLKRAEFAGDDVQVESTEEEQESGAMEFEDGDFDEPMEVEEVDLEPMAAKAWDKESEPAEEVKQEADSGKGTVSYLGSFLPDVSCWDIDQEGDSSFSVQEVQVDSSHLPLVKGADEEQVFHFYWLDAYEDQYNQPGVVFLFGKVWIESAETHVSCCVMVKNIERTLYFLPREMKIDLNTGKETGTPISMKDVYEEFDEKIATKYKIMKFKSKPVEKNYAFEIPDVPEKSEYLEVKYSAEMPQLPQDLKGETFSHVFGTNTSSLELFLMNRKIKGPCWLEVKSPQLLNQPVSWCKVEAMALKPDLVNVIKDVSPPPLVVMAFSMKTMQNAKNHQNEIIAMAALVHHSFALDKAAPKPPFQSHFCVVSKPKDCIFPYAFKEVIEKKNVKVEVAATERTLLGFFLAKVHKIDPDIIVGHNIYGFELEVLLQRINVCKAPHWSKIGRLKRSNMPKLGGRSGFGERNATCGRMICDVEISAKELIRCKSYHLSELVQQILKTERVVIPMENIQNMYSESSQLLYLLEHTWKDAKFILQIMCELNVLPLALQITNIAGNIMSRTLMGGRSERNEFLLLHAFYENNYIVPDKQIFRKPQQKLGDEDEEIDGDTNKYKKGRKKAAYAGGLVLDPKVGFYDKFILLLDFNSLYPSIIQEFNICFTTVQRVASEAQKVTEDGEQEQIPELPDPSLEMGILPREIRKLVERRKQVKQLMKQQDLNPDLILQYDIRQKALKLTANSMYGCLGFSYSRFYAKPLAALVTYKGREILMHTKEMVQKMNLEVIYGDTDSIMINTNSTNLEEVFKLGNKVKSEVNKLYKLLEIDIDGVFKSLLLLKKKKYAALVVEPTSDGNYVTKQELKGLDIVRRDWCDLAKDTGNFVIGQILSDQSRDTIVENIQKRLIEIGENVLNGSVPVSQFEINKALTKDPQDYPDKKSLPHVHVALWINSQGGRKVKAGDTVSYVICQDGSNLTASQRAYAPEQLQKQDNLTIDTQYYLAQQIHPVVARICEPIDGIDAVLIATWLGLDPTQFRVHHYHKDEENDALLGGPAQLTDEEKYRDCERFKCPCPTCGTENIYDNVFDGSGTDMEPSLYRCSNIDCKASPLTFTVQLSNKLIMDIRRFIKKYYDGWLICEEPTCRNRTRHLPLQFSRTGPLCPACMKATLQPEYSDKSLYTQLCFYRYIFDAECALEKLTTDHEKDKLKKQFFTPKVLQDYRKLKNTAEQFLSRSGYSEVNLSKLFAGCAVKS

[6] = test system: cultured animal cells; conditions: Murakami-Murofushi et al. 1992; cited from earlier work

| SMILES | level of myelin (Black Gold staining) versus control mouse [1] | demyelination level in corpus callosum (Black Gold II staining) [2] | nerve inflammation (gene expression by Q-PCR) [3] | motor function impairment (rotarod) [4] | activity of DNA polymerase α [5] | proliferation of cultured animal cells [6] |
| --- | --- | --- | --- | --- | --- | --- |
| CCCCCCCCC=CCCCCCCCC(=O)OCC1COP(=O)(O)C1 (stereo not shown) [2 ccPA (18:1), oleoyl 2-carba-cPA] | the same results as in the case of cPA (16:0) and 2 ccPA (16:1) were obtained | – | – | – | – | – |
| CCCCCC/C=C\CCCCCCCC(=O)OCC1COP(=O)(O)C1 (stereo not shown) [2 ccPA, palmitoleoyl 2-carba-cPA] | higher than the level of myelin in a control mouse | demyelination is suppressed | nerve inflammation is suppressed | motor function impairment is improved | – | – |
| CCCCCC[C@@H]1C[C@@H]1CCCCCCCC(=O)OC[C@@H]1COP(=O)([O-])O1.[Na+] [PHYLPA] | – | – | – | – | suppressing the activity of DNA polymerase α | suppressing proliferation of cultured animal cells |
